Measured values reported in PubChem BioAssay AID248 (DTP/NCI, 2004).
Values joined by “and” are separate entries in the source; they are usually repeats but may differ in a detail not shown here. Equal values may be shown once. Inconclusive results and toxic doses are left out. Rule as the data show it: active = T/C of 150% or more; inactive = T/C below 125%.

System: L1210 leukemia ip in BDF1 mice, survival T/C
Experiment: NCI In Vivo Anticancer Drug Screen. Data for tumor model L1210 Leukemia (intraperitoneal) in B6D2F1 (BDF1) mice
Conditions: higher = longer survival
Outline: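 Each compound was tested against a transplantable tumor grown in mice. The endpoint was survival, with treated animals benchmarked against vehicle controls as a simple ratio.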

[1] = endpoint: mean survival time, dose: 50.0 mg/kg/injection, schedule: Q01DX009 (ip), vehicle: saline
[2] = endpoint: mean survival time, dose: 100.0 mg/kg/injection, schedule: Q01DX009 (ip), vehicle: saline
[3] = endpoint: mean survival time, dose: 100.0 mg/kg/injection, schedule: Q04DX003 (ip), vehicle: saline
[4] = endpoint: mean survival time, dose: 200.0 mg/kg/injection, schedule: Q01DX009 (ip), vehicle: saline
[5] = endpoint: mean survival time, dose: 200.0 mg/kg/injection, schedule: Q04DX003 (ip), vehicle: saline
[6] = endpoint: mean survival time, dose: 100.0 mg/kg/injection, schedule: Q01DX009 (ip), vehicle: Klucel (hydroxypropylcellulose) (HPC)
[7] = endpoint: mean survival time, dose: 100.0 mg/kg/injection, schedule: Q04DX003 (ip), vehicle: Klucel (hydroxypropylcellulose) (HPC)
[8] = endpoint: mean survival time, dose: 200.0 mg/kg/injection, schedule: Q01DX009 (ip), vehicle: Klucel (hydroxypropylcellulose) (HPC)
[9] = endpoint: mean survival time, dose: 200.0 mg/kg/injection, schedule: Q04DX003 (ip), vehicle: Klucel (hydroxypropylcellulose) (HPC)
[10] = endpoint: mean survival time, dose: 400.0 mg/kg/injection, schedule: Q01DX009 (ip), vehicle: Klucel (hydroxypropylcellulose) (HPC)
[11] = endpoint: mean survival time, dose: 400.0 mg/kg/injection, schedule: Q04DX003 (ip), vehicle: Klucel (hydroxypropylcellulose) (HPC)
[12] = endpoint: mean survival time, dose: 100.0 mg/kg/injection, schedule: Q01DX001 (ip), vehicle: carboxymethylcellulose (CMC)
[13] = endpoint: mean survival time, dose: 200.0 mg/kg/injection, schedule: Q01DX001 (ip), vehicle: carboxymethylcellulose (CMC)
[14] = endpoint: mean survival time, dose: 400.0 mg/kg/injection, schedule: Q01DX001 (ip), vehicle: carboxymethylcellulose (CMC)
[15] = endpoint: mean survival time, dose: 100.0 mg/kg/injection, schedule: Q01DX001 (ip), vehicle: saline
[16] = endpoint: mean survival time, dose: 200.0 mg/kg/injection, schedule: Q01DX001 (ip), vehicle: saline
[17] = endpoint: mean survival time, dose: 400.0 mg/kg/injection, schedule: Q01DX001 (ip), vehicle: saline

Measured: T/C

N=c1cc(-c2ccc(Cl)cc2)ss1
inactive: [1] 91 % of control | [2] 97 % of control | [3] 100 % of control | [4] 91 % of control | [5] 92 % of control

CSC1CCCC(=O)C1 (stereo not drawn)
inactive: [6] 98 % of control | [7] 96 % of control | [8] 101 % of control | [9] 97 % of control | [10] 96 % of control | [11] 105 % of control

CN(c1ccccc1)c1ccc([N+](=O)[O-])cc1[N+](=O)[O-]
inactive: [12] 98 % of control | [13] 102 % of control | [14] 107 % of control

Cc1cc([N+](=O)[O-])c(Cl)c([N+](=O)[O-])c1
inactive: [12] 91 % of control | [13] 89 % of control | [14] 100 % of control

COc1ccc2c(c1)C13CCN(C)C(C2)C1CCC1(C3)OCCO1 (stereo not drawn)
inactive: endpoint: mean survival time, dose: 12.5 mg/kg/injection, schedule: Q01DX009 (ip), vehicle: saline 103 % of control | endpoint: mean survival time, dose: 25.0 mg/kg/injection, schedule: Q01DX009 (ip), vehicle: saline 94 % of control | [1] 97 % of control | [15] 109 % of control | [6] 106 % of control | [3] 105 % of control | [16] 101 % of control | [5] 86 % of control | [17] 95 % of control

O=C(c1ccncc1)n1cc2c(n1)CCCC2
inactive: [7] 87 % of control | [9] 92 % of control | [11] 95 % of control

O=C1NC(CCO)C(=O)NC1CCO (stereo not drawn)
inactive: [1] 97 % of control | [15] 100 % of control | [2] 112 % of control | [16] 97 % of control | [4] 104 % of control | [17] 100 % of control

O=S(=O)(O)C(O)C(Cl)(Cl)Cl (stereo not drawn)
inactive: [15] 103 % of control | [2] 98 % of control | [3] 107 % of control | [16] 101 % of control | [4] 101 % of control | [5] 96 % of control | [17] 98 % of control | endpoint: mean survival time, dose: 400.0 mg/kg/injection, schedule: Q01DX009 (ip), vehicle: saline 98 % of control | endpoint: mean survival time, dose: 400.0 mg/kg/injection, schedule: Q04DX003 (ip), vehicle: saline 95 % of control

Clc1ccc([O][Sn]([c]2ccccc2)([c]2ccccc2)[c]2ccccc2)c(-c2ccccc2)c1
inactive: endpoint: mean survival time, dose: 5.0 mg/kg/injection, schedule: Q01DX001 (ip), vehicle: saline 90 % of control | endpoint: mean survival time, dose: 10.0 mg/kg/injection, schedule: Q01DX001 (ip), vehicle: saline 96 % of control

CCc1n[nH]c(=S)n1N
inactive: endpoint: mean survival time, dose: 12.5 mg/kg/injection, schedule: Q04DX003 (ip), vehicle: Klucel (hydroxypropylcellulose) (HPC) 94 % of control | endpoint: mean survival time, dose: 25.0 mg/kg/injection, schedule: Q04DX003 (ip), vehicle: Klucel (hydroxypropylcellulose) (HPC) 89 % of control | endpoint: mean survival time, dose: 50.0 mg/kg/injection, schedule: Q04DX003 (ip), vehicle: Klucel (hydroxypropylcellulose) (HPC) 96 % of control

O=C(Nc1cccc(C(F)(F)F)c1)Nc1ccc([N+](=O)[O-])cc1Cl
inactive: endpoint: mean survival time, dose: 100.0 mg/kg/injection, schedule: Q01DX009 (ip), vehicle: gum acacia 88 % of control | endpoint: mean survival time, dose: 200.0 mg/kg/injection, schedule: Q01DX009 (ip), vehicle: gum acacia 97 % of control | endpoint: mean survival time, dose: 400.0 mg/kg/injection, schedule: Q01DX009 (ip), vehicle: gum acacia 96 % of control

COc1cc(NC2=C(Cl)C(=O)C(Nc3cc(OC)c(OC)c(OC)c3)=C(Cl)C2=O)cc(OC)c1OC
inactive: [7] 119 % of control | [9] 95 % of control | [11] 98 % of control

CS(=O)CC(=O)c1ccc(C(=O)O)cc1 (stereo not drawn)
inactive: endpoint: mean survival time, dose: 100.0 mg/kg/injection, schedule: Q04DX003 (ip), vehicle: other 107 % of control | endpoint: mean survival time, dose: 200.0 mg/kg/injection, schedule: Q04DX003 (ip), vehicle: other 98 % of control | endpoint: mean survival time, dose: 400.0 mg/kg/injection, schedule: Q04DX003 (ip), vehicle: other 101 % of control

C/C=C(\C)C(=O)Nc1cccc(O)c1
inactive: endpoint: mean survival time, dose: 100.0 mg/kg/injection, schedule: Q04DX003 (ip), vehicle: saline with Tween-80 90 % of control | endpoint: mean survival time, dose: 200.0 mg/kg/injection, schedule: Q04DX003 (ip), vehicle: saline with Tween-80 93 % of control | endpoint: mean survival time, dose: 400.0 mg/kg/injection, schedule: Q04DX003 (ip), vehicle: saline with Tween-80 90 % of control

CCC1=C(C[C@H]2NCCc3cc(OC)c(OC)cc32)C[C@H]2c3cc(OC)c(OC)cc3CCN2C1
inactive: endpoint: mean survival time, dose: 1.0 mg/kg/injection, schedule: Q01DX005 (ip), vehicle: saline 111 % of control | endpoint: mean survival time, dose: 1.0 mg/kg/injection, schedule: Q03HX024 (ip), vehicle: saline 111 % of control | endpoint: mean survival time, dose: 2.0 mg/kg/injection, schedule: Q01DX005 (ip), vehicle: saline 107 % of control and 108 % of control | endpoint: mean survival time, dose: 2.0 mg/kg/injection, schedule: Q01DX009 (ip), vehicle: saline 103 % of control | endpoint: mean survival time, dose: 2.0 mg/kg/injection, schedule: Q03HX016 (ip), vehicle: saline 111 % of control | endpoint: mean survival time, dose: 2.0 mg/kg/injection, schedule: Q04DX003 (ip), vehicle: saline 103 % of control and 104 % of control | endpoint: mean survival time, dose: 2.32 mg/kg/injection, schedule: Q01DX005 (ip), vehicle: saline 117 % of control | endpoint: mean survival time, dose: 4.0 mg/kg/injection, schedule: Q01DX005 (ip), vehicle: saline 119 % of control [middle of 4 runs] | endpoint: mean survival time, dose: 4.0 mg/kg/injection, schedule: Q01DX005 (sc), vehicle: saline 122 % of control | endpoint: mean survival time, dose: 4.0 mg/kg/injection, schedule: Q01DX009 (ip), vehicle: saline 103 % of control and 119 % of control | endpoint: mean survival time, dose: 4.0 mg/kg/injection, schedule: Q04DX003 (ip), vehicle: saline 107 % of control and 105 % of control and 108 % of control | endpoint: mean survival time, dose: 4.64 mg/kg/injection, schedule: Q01DX005 (ip), vehicle: saline 116 % of control | endpoint: mean survival time, dose: 4.64 mg/kg/injection, schedule: Q04DX003 (ip), vehicle: saline 106 % of control | endpoint: mean survival time, dose: 8.0 mg/kg/injection, schedule: Q01DX005 (oral), vehicle: saline 102 % of control | endpoint: mean survival time, dose: 8.0 mg/kg/injection, schedule: Q01DX005 (sc), vehicle: saline 119 % of control | endpoint: mean survival time, dose: 8.0 mg/kg/injection, schedule: Q01DX009 (ip), vehicle: saline 108 % of control | endpoint: mean survival time, dose: 8.0 mg/kg/injection, schedule: Q04DX003 (ip), vehicle: saline 111 % of control [middle of 4 runs] | endpoint: mean survival time, dose: 9.28 mg/kg/injection, schedule: Q04DX003 (ip), vehicle: saline 94 % of control | endpoint: mean survival time, dose: 16.0 mg/kg/injection, schedule: Q01DX005 (oral), vehicle: saline 116 % of control | endpoint: mean survival time, dose: 16.0 mg/kg/injection, schedule: Q01DX005 (sc), vehicle: saline 105 % of control | endpoint: mean survival time, dose: 16.0 mg/kg/injection, schedule: Q08DX002 (ip), vehicle: saline 120 % of control | endpoint: mean survival time, dose: 32.0 mg/kg/injection, schedule: Q01DX001 (sc), vehicle: saline 110 % of control | endpoint: mean survival time, dose: 37.12 mg/kg/injection, schedule: Q04DX003 (ip), vehicle: saline 108 % of control | endpoint: mean survival time, dose: 64.0 mg/kg/injection, schedule: Q01DX001 (sc), vehicle: saline 121 % of control | endpoint: mean survival time, dose: 64.0 mg/kg/injection, schedule: Q04DX003 (ip), vehicle: saline 102 % of control | endpoint: median survival time, dose: 4.0 mg/kg/injection, schedule: Q04DX003 (ip), vehicle: saline 102 % of control | endpoint: median survival time, dose: 8.0 mg/kg/injection, schedule: Q04DX003 (ip), vehicle: saline 107 % of control | endpoint: median survival time, dose: 16.0 mg/kg/injection, schedule: Q04DX003 (ip), vehicle: saline 110 % of control

O=C(Nc1ccc(F)c([N+](=O)[O-])c1)Nc1cc(C(F)(F)F)ccc1Cl
inactive: [6] 101 % of control | [8] 90 % of control | [10] 89 % of control

O=S(=O)(c1ccccc1)c1cccs1
inactive: endpoint: mean survival time, dose: 50.0 mg/kg/injection, schedule: Q01DX009 (ip), vehicle: saline with Tween-80 101 % of control | endpoint: mean survival time, dose: 100.0 mg/kg/injection, schedule: Q01DX009 (ip), vehicle: saline with Tween-80 96 % of control | endpoint: mean survival time, dose: 200.0 mg/kg/injection, schedule: Q01DX009 (ip), vehicle: saline with Tween-80 105 % of control

O=[N+]([O-])c1ccc(O)c(/C=N/Nc2c3ccccc3nc3ccccc23)c1
inactive: [15] 103 % of control | [16] 95 % of control | [17] 92 % of control
